Columns and labels:
P. falciparum = experiment: EC50 listed in S2 Table Metabolomics (used to set the concentration tested); type: cell-based; conditions: Plasmodium falciparum; EC50 used for Factor_XEC50 in metabolomics; read-out: EC50_nM
[1] = tested on: P. falciparum 3D7 trophozoites; experiment: Metabolomic fingerprint profiling LC-MS; type: cell-based, Plasmodium falciparum; set-up: UDP-D-glucose / ADP-D-glucose: unit not given here
[2] = metabolite level change after treatment

Cc1ccc(-c2cc3c(SCC(=O)Nc4cc(C(F)(F)F)ccc4Cl)nccn3n2)cc1 [MMV396680]
EC50 (P. falciparum): 92.8 nM | Acetyllysine ([1]; S2 Table Metabolomics, metabolite Acetyllysine): -0.4906 | N-acetyl-L-ornithine ([1]; S2 Table Metabolomics, metabolite N-acetyl-L-ornithine): -0.1465 | N-carbamoyl-L-aspartate ([1]; S2 Table Metabolomics, metabolite N-carbamoyl-L-aspartate): 2.456 | NADPH ([1]; S2 Table Metabolomics, metabolite NADPH): 0.3651 | dAMP ([1]; S2 Table Metabolomics, metabolite dAMP): -0.4552 | dCMP ([1]; S2 Table Metabolomics, metabolite dCMP): -0.05341 | dTDP ([1]; S2 Table Metabolomics, metabolite dTDP): -1.136 | dTMP ([1]; S2 Table Metabolomics, metabolite dTMP): -1.083 | dTTP ([1]; S2 Table Metabolomics, metabolite dTTP): -1.158 | dihydroorotate ([1]; S2 Table Metabolomics, metabolite dihydroorotate): 3.543 | orotate ([1]; S2 Table Metabolomics, metabolite orotate): -0.9159 | DLH ([1]; S2 Table Metabolomics, peptide DLH): -0.3949 | DLS/SDL/SID ([1]; S2 Table Metabolomics, peptide DLS/SDL/SID): -0.337 | PD ([1]; S2 Table Metabolomics, peptide PD): -0.05706 | PEE ([1]; S2 Table Metabolomics, peptide PEE): -0.2567 | PVNF ([1]; S2 Table Metabolomics, peptide PVNF): -0.5778 | 3-phosphoglycerate ([1]; metabolite 3-phosphoglycerate, S2 Table Metabolomics): -0.2595 | ADP-D-glucose ([1]; metabolite ADP-D-glucose, S2 Table Metabolomics): -0.2217 | ATP ([1]; metabolite ATP, S2 Table Metabolomics): -0.3128 | CDP ([1]; metabolite CDP, S2 Table Metabolomics, change in metabolite level after compound treatment): -0.9741 | D-sedoheptulose-1/7-phosphate ([1]; metabolite D-sedoheptulose-1/7-phosphate, S2 Table Metabolomics, change in metabolite level after compound treatment): -0.1867 | FAD ([1]; metabolite FAD, S2 Table Metabolomics): 0.01886 | GMP ([1]; metabolite GMP, S2 Table Metabolomics, change in metabolite level after compound treatment): 0.2283 | NAD+ ([1]; metabolite NAD+, S2 Table Metabolomics): 0.1566 | NADP+ ([1]; metabolite NADP+, S2 Table Metabolomics): -0.1345 | Octoluse Bisphosphate ([1]; metabolite Octoluse Bisphosphate, S2 Table Metabolomics, change in metabolite level after compound treatment): -0.3002 | Pyroglutamic acid ([1]; metabolite Pyroglutamic acid, S2 Table Metabolomics): -0.01833 | UDP-D-glucose ([1]; metabolite UDP-D-glucose, S2 Table Metabolomics): -0.08257 | UDP-D-glucuronate ([1]; metabolite UDP-D-glucuronate, S2 Table Metabolomics): -0.2581 | UDP-N-acetyl-glucosamine ([1]; metabolite UDP-N-acetyl-glucosamine, S2 Table Metabolomics): -0.1134 | UDP ([1]; metabolite UDP, S2 Table Metabolomics, change in metabolite level after compound treatment): -1.014 | UMP ([1]; metabolite UMP, S2 Table Metabolomics, change in metabolite level after compound treatment): -0.7737 | UTP ([1]; metabolite UTP, S2 Table Metabolomics, change in metabolite level after compound treatment): -1.292 | a-ketoglutarate ([1]; metabolite a-ketoglutarate, S2 Table Metabolomics): -0.4564 | citrate/isocitrate ([1]; metabolite citrate/isocitrate, S2 Table Metabolomics, change in metabolite level after compound treatment): -0.8044 | cytidine ([1]; metabolite cytidine, S2 Table Metabolomics): 0.4371 | dATP ([1]; metabolite dATP, S2 Table Metabolomics): 0.3628 | dGMP/AMP ([1]; metabolite dGMP/AMP, S2 Table Metabolomics, change in metabolite level after compound treatment): -1.368 | fumarate ([1]; metabolite fumarate, S2 Table Metabolomics, change in metabolite level after compound treatment): -0.8765 | glucose-1/6-phosphate ([1]; metabolite glucose-1/6-phosphate, S2 Table Metabolomics, change in metabolite level after compound treatment): 0.09137 | glycerate ([1]; metabolite glycerate, S2 Table Metabolomics, change in metabolite level after compound treatment): -0.2491 | guanine ([1]; metabolite guanine, S2 Table Metabolomics, change in metabolite level after compound treatment): 0.04089 | guanosine ([1]; metabolite guanosine, S2 Table Metabolomics, change in metabolite level after compound treatment): -0.01605 | hypoxanthine ([1]; metabolite hypoxanthine, S2 Table Metabolomics): -0.1601 | indole ([1]; metabolite indole, S2 Table Metabolomics): -0.003888 | inosine ([1]; metabolite inosine, S2 Table Metabolomics, change in metabolite level after compound treatment): -0.03937 | 2_3-Diphosphoglyceric acid [1, 2]: -0.2285 | 4-phosphopantothenate [1, 2]: -0.2363 | 6-phospho-D-gluconate [1, 2]: 0 | FMN [1, 2]: -0.1967 | IMP [1, 2]: -0.1897 | Pyrophosphate [1, 2]: 0.5607 | Sedoheptoluse bisphosphate [1, 2]: -0.2656 | cyclic-AMP [1, 2]: -0.07723 | glutathione disulfide [1, 2]: -0.04075 | lactate [1, 2]: -0.4254 | myo-inositol [1, 2]: -0.7104 | nicotinate ([1]; metabolite nicotinate, S2 Table Metabolomics): -0.4764 | ornithine ([1]; metabolite ornithine, S2 Table Metabolomics): -0.2162 | phosphoenolpyruvate ([1]; metabolite phosphoenolpyruvate, S2 Table Metabolomics): -0.2321 | pyruvate ([1]; metabolite pyruvate, S2 Table Metabolomics, change in metabolite level after compound treatment): -0.2774 | ribose-phosphate ([1]; metabolite ribose-phosphate, S2 Table Metabolomics): -0.04672 | sarcosine/alanine ([1]; metabolite sarcosine/alanine, S2 Table Metabolomics, change in metabolite level after compound treatment): -0.2257 | sn-glycerol-3-phosphate ([1]; metabolite sn-glycerol-3-phosphate, S2 Table Metabolomics): -0.3003 | succinate/methylmalonic acid ([1]; metabolite succinate/methylmalonic acid, S2 Table Metabolomics, change in metabolite level after compound treatment): 0.02717 | uridine ([1]; metabolite uridine, S2 Table Metabolomics, change in metabolite level after compound treatment): -0.7719 | xanthosine ([1]; metabolite xanthosine, S2 Table Metabolomics, change in metabolite level after compound treatment): -0.1274
